Results reported in the supplement of paper PMC6045584.
± gives the standard deviation of the averaged measurements.

Columns and labels:
[1] = compound: CC[C@@H](C(=O)[C@@H](C)[C@@H](O)[C@H](C)[C@@H]1O[C@@H]([C@@H](CC)C(=O)O)CC[C@@H]1C)[C@H]1O[C@]2(C=C[C@@H](O)[C@]3(CC[C@@](C)([C@H]4CC[C@](O)(CC)[C@H](C)O4)O3)O2)[C@H](C)C[C@@H]1C [SALINOMYCIN]; test: surviving fraction relative to DMSO-only wells; higher = less growth inhibition; conditions: exposure time: 5 days
Summary of the method: (§1)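 Viability was determined by CellTiter-Glo luminescence, expressed as surviving fraction normalised to the median of DMSO-only wells. The cells were log-phase tumour cell lines seeded at 250–500 per well in 384-well plates and, after 24 hours, exposed continuously for five days to inhibitors at 0.5, 1, 5, 10, 50, 100, 500 and 1000 nM. Three screens per line were run, keeping only lines with replicate Pearson r >0.7 and median Z' >0.3.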

[2] = compound: O=c1[nH]cc(F)c(=O)[nH]1 [FLUOROURACIL]; test: as above; conditions: exposure time: 5 days
Summary of the method: as §1

| Test System | surviving fraction ([1]; 0.5 nM) | surviving fraction ([1]; 1 nM) | surviving fraction ([1]; 5 nM) | surviving fraction ([1]; 10 nM) | surviving fraction ([1]; 50 nM) | surviving fraction ([1]; 100 nM) | surviving fraction ([1]; 500 nM) | surviving fraction ([1]; 1000 nM) | surviving fraction ([2]; 0.5 nM) | surviving fraction ([2]; 1 nM) | surviving fraction ([2]; 5 nM) | surviving fraction ([2]; 10 nM) | surviving fraction ([2]; 50 nM) | surviving fraction ([2]; 100 nM) | surviving fraction ([2]; 500 nM) | surviving fraction ([2]; 1000 nM) |
| --- | --- | --- | --- | --- | --- | --- | --- | --- | --- | --- | --- | --- | --- | --- | --- | --- |
| KPD BONE | 0.931 ± 0.046 | 0.942 ± 0.013 | 1 ± 0.064 | 0.979 ± 0.018 | 0.93 ± 0.032 | 0.7467 ± 0.005 | 0.235 ± 0.015 | 0.128 ± 0.016 | 0.982 ± 0.018 | 0.922 ± 0.052 | 1.02 ± 0.07 | 1.03 ± 0.044 | 1.05 ± 0.048 | 1.02 ± 0.051 | 0.9797 ± 0.0032 | 0.926 ± 0.022 |
| LM7 BONE | 1.01 ± 0.021 | 1.01 ± 0.068 | 1.06 ± 0.041 | 1.11 ± 0.065 | 1.05 ± 0.053 | 1.09 ± 0.051 | 0.588 ± 0.04 | 0.397 ± 0.02 | 0.976 ± 0.039 | 0.992 ± 0.027 | 1.05 ± 0.043 | 1.01 ± 0.047 | 0.851 ± 0.057 | 0.856 ± 0.077 | 0.73 ± 0.079 | 0.628 ± 0.083 |
| LNCAP PROSTATE | 0.833 ± 0.096 | 0.884 ± 0.07 | 0.818 ± 0.18 | 0.815 ± 0.11 | 0.643 ± 0.01 | 0.215 ± 0.013 | 0.0563 ± 0.005 | 0.0493 ± 0.0031 | 1.07 ± 0.039 | 1.17 ± 0.076 | 1.07 ± 0.11 | 1.05 ± 0.043 | 1.17 ± 0.022 | 1.12 ± 0.021 | 0.964 ± 0.18 | 0.73 ± 0.11 |
| MCF7 BREAST | 0.853 ± 0.048 | 0.8602 ± 0.005 | 0.821 ± 0.025 | 0.815 ± 0.034 | 0.941 ± 0.02 | 0.908 ± 0.055 | 0.677 ± 0.014 | 0.348 ± 0.028 | 0.929 ± 0.055 | 0.907 ± 0.043 | 0.93 ± 0.035 | 0.893 ± 0.027 | 0.973 ± 0.11 | 0.986 ± 0.032 | 0.837 ± 0.054 | 0.707 ± 0.033 |
| MDAMB134 BREAST | 1.05 ± 0.26 | 1.01 ± 0.22 | 0.995 ± 0.0042 | 1.08 ± 0.015 | 1.02 ± 0.069 | 1.05 ± 0.021 | 1.32 ± 0.041 | 1.04 ± 0.037 | 0.823 ± 0.042 | 0.964 ± 0.16 | 0.832 ± 0.082 | 0.877 ± 0.18 | 0.745 ± 0.094 | 0.744 ± 0.12 | 0.748 ± 0.0042 | 0.714 ± 0.016 |
| MDAMB157 BREAST | 0.881 ± 0.017 | 0.904 ± 0.042 | 0.985 ± 0.073 | 0.99 ± 0.044 | 0.982 ± 0.078 | 0.819 ± 0.054 | 0.217 ± 0.043 | 0.139 ± 0.011 | 0.981 ± 0.019 | 0.969 ± 0.12 | 1.05 ± 0.055 | 1.05 ± 0.1 | 1.02 ± 0.03 | 0.978 ± 0.017 | 0.943 ± 0.044 | 0.836 ± 0.059 |
| MDAMB231 BREAST | 0.9877 ± 0.006 | 0.9962 ± 0.0061 | 0.993 ± 0.011 | 0.983 ± 0.018 | 1 ± 0.057 | 0.953 ± 0.016 | 0.559 ± 0.011 | 0.425 ± 0.0083 | 0.978 ± 0.019 | 0.947 ± 0.014 | 0.975 ± 0.039 | 0.972 ± 0.022 | 0.961 ± 0.035 | 0.914 ± 0.041 | 0.986 ± 0.021 | 0.865 ± 0.022 |
| MDAMB361 BREAST | 0.826 ± 0.086 | 0.866 ± 0.041 | 0.877 ± 0.0093 | 0.845 ± 0.058 | 0.909 ± 0.047 | 0.845 ± 0.035 | 0.753 ± 0.014 | 0.638 ± 0.0085 | 0.725 ± 0.094 | 0.747 ± 0.067 | 0.8 ± 0.092 | 0.758 ± 0.12 | 0.537 ± 0.042 | 0.618 ± 0.027 | 0.704 ± 0.08 | 0.65 ± 0.061 |
